# According to patent publication US20250059141A1, “TLR MODULATOR AND USE THEREOF” (DUALITY BIOLOGICS (SUZHOU) CO., LTD., priority 2021, published 2025):
# Biological target: T1, hTLR7 (human Toll-like receptor 7) (Homo sapiens, UniProt Q9NYK1)
# T1 construct: host or cells: HEK-Blue hTLR7 (HEK293-derived reporter cells)
# T1 sequence (Q9NYK1 27-1049): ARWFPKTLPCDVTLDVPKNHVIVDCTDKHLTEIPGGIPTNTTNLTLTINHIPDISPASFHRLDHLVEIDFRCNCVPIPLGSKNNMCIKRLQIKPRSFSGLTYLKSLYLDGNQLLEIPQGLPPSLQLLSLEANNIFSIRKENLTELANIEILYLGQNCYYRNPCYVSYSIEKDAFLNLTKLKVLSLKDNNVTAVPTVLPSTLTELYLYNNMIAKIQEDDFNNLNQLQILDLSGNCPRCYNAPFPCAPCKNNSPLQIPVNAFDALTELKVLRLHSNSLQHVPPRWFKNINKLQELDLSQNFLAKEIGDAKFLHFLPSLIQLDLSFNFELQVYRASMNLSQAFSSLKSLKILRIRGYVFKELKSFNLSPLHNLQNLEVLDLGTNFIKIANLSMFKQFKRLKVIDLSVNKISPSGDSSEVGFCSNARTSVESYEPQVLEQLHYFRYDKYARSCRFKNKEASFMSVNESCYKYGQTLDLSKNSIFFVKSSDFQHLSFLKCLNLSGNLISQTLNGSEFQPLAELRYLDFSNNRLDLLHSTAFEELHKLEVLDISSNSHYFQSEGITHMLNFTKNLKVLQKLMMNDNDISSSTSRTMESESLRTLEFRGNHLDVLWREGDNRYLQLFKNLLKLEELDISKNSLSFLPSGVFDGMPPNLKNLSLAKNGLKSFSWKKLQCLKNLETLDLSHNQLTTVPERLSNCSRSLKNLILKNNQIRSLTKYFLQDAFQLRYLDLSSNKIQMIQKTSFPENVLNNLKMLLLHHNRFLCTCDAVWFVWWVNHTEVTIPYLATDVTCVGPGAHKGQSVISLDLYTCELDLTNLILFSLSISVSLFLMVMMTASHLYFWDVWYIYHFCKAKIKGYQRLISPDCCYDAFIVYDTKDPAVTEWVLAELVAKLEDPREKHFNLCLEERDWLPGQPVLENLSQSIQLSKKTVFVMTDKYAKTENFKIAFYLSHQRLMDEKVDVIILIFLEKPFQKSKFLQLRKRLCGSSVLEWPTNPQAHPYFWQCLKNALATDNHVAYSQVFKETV
# Assay: HEK-Blue hTLR7 reporter assay (QUANTI-Blue, OD650)
# Assay type: cell-based
# Settings: HEK-Blue hTLR7 cells, 24 h; class symbols; read-out: Reporter assay TLR7 EC50
# Protocol: In this example, the agonistic activity of the compounds of the present application on hTLR7 (human Toll-like receptor 7) and hTLR8 (human Toll-like receptor 8) was assessed; the induction activity of the compounds on human PBMCs for TNF-α and IFN-α production was assessed in human PBMCs (human peripheral blood mononuclear cells).
# All compounds were formulated in DMSO into 30 mM stock solutions and preserved at 4° C. The reference compound ([…], Cat. No. tlrl-r848-5) was purchased from InvivoGen and formulated into a 5 mg/mL stock solution in DMSO and preserved in a freezer at −20° C. HEK-Blue hTLR7 and HEK-Blue hTLR8 cell lines were purchased from InvivoGen, and human PBMCs were purchased from Shanghai Saily Biotechnology Co., Ltd. (Cat. No. XFB—HP100B).
# The major instruments used in this study were multifunctional microplate reader Flexstation III (Molecular Device), Envision (Perkin Elmer), M2e (Molecular Device), and Echo555 (Labcyte). 2.1 Agonistic activity of compounds on hTLR7 (human Toll-like receptor 7) and hTLR8 (human Toll-like receptor 8)
# Compound dilution: The compounds of the present application are diluted in DMSO, for example, to about 15 mM. The reference compound was added to the plates in sequence after dilution. The compounds were serially 3-fold diluted to 10 concentrations and added to 96-well plates in duplicate.
# For the negative control wells, DMSO was added at 0.2 μL/well, and the reference compound was added to the positive control wells. The final concentration of DMSO was 0.2%.
# Cell plating: When an 80% confluence of HEK Blue hTLR7&8 cells in the culture flask was observed under a microscope, the culture medium was discarded, 10 mL of detection medium was added, and the cells were separated by pipetting. The cells were counted on a cytometer and diluted to 500,000 cells/mL. The cells were plated at 100 μL/50,000 cells/well in the 96-well plates containing the compounds. The compounds and cells were co-incubated at 37° C. in a 5% CO2 incubator for 24 hours.
# Compound activity detection: 20 μL of cell supernatant was taken from each well and added to a plate containing QUANTI-Blue™ reagent at 180 μL/well. The plate was incubated at 37° C. for 1 hour, and the absorbance at 650 nm (OD650) was measured on the multifunctional microplate reader Flexstation III.
# Compound activity data analysis: The OD650 values were analyzed by GraphPad Prism software and fitted to give dose-response curves of the compounds. The EC50 values of compounds were calculated.
row,SMILES,EC50
1,CCCN(OCc1ccc(N)cc1)C(=O)C1=Cc2ccc(C(=O)Nc3ccc4cn[nH]c4c3)cc2N=C(N)C1 [Compound 89],> 1000 nM
2,CCCN(OCc1ccc(N)cc1)C(=O)C1=Cc2ccc(-c3cncc(S(=O)(=O)N4CCNCC4)c3)cc2N=C(N)C1 [Compound 69],100 to 1000 nM
3,CCCN(OCc1ccc(N)cc1)C(=O)C1=Cc2ccc(C(=O)N[C@H]3C[C@@H]3c3ccccc3)cc2N=C(N)C1 [Compound 78],100 to 1000 nM
4,CCCN(OCc1ccc(N)cc1)C(=O)C1=Cc2ccc(C(=O)NCCO)cc2N=C(N)C1 [Compound 48],> 1000 nM
5,CCCN(OCc1ccc(N)cc1)C(=O)C1=Cc2ccc(C(=O)N3CC(CO)C3)cc2N=C(N)C1 [Compound 37],> 1000 nM
6,CCCN(OCc1ccc(N)cc1)C(=O)C1=Cc2ccc(C(=O)NC3CCOCC3)cc2N=C(N)C1 [Compound 84],> 1000 nM
7,CCCN(OCc1ccc(N)cc1)C(=O)C1=Cc2ncc(-c3cncc(CO)c3)cc2N=C(N)C1 [Compound 61],100 to 1000 nM
8,CCCN(OCc1ccc(N)cc1)C(=O)C1=Cc2ccc(-c3cccc(S(=O)(=O)NCCO)c3)cc2N=C(N)C1 [Compound 64],100 to 1000 nM
9,CCCN(OCc1ccc(N)cc1OC)C(=O)C1=Cc2ncc(-c3cncc(CO)c3)cc2N=C(N)C1 [Compound 60],100 to 1000 nM
10,CCCN(OCc1ccc(N)cc1)C(=O)C1=Cc2ccc(C(=O)N[C@@H](C)c3ccccc3)cc2N=C(N)C1 [Compound 77],100 to 1000 nM
11,CCCN(OCc1ccc(N)cc1)C(=O)C1=Cc2ccc(-c3cncc(S(=O)(=O)N4CC[C@H](O)C4)c3)cc2N=C(N)C1 [Compound 72],100 to 1000 nM
12,CCCN(OCc1ccc(N)cc1)C(=O)C1=Cc2ccc(-c3cncc([S+](C)[O-])c3)cc2N=C(N)C1 (stereo not drawn) [Compound 73],100 to 1000 nM
13,CCCN(OCc1ccc(N)cc1)C(=O)C1=Cc2ccc(-c3cncc(S(=O)(=O)NCCO)c3)cc2N=C(N)C1 [Compound 70],100 to 1000 nM
14,CCCN(OCc1ccc(N)cc1)C(=O)C1=Cc2ccc(C(=O)N3CCN(c4ccccc4)CC3)cc2N=C(N)C1 [Compound 97],> 1000 nM
15,CCCN(OCc1ccc(N)cc1)C(=O)C1=Cc2ccc(-c3cncc(S(=O)(=O)N4CCC(O)CC4)c3)cc2N=C(N)C1 [Compound 71],100 to 1000 nM

# Test system: TNF-α production in human PBMCs
# Assay: Induction of TNF-α in human PBMCs (ELISA)
# Assay type: cell-based
# Settings: PBMC, 24 h, serial 4-fold dilutions, class symbols, read-out: PBMC assay TNFa EC50
# Protocol: In this example, the induction activity of the compounds of the present application on human PBMCs for TNF-α and IFN-α production was assessed in human PBMCs (human peripheral blood mononuclear cells). The human PBMCs were purchased from Shanghai Saily Biotechnology Co., Ltd. (Cat. No. XFB—HP100B). PBMC cells were treated with the compounds. The compounds of the present application are diluted in DMSO, for example, to about 15 mM. The reference compound was added to the plates in sequence after diluted to 5 mg/mL. The compounds were serially 3- or 4-fold diluted to 8 concentrations and added to plates in duplicate (Table 2-1 for serial 3-fold dilutions and Table 2-2 for serial 4-fold dilutions). For the negative control wells, DMSO was added at 0.4 μL/well, and a 5 mg/mL reference compound solution was added to the positive control wells at 0.4 μL/well. The final concentration of DMSO was 0.2%. Frozen human PBMCs in cryopreservation tubes were quickly thawed in a 37° C. water bath and transferred into 50-mL centrifuge tubes. Prewarmed RPMI1640 medium was gradually added and the mixture was well mixed and centrifuged for 15 min before the supernatant was discarded. The cells were resuspended in a culture medium and counted. The cell suspension was adjusted to 2.5×10^6 cells/mL with the culture medium. Diluted cells were added at 200 μL/500,000 cells/well in 96-well plates containing the compounds. The cell plates were incubated at 37° C./5% CO2 for 24 h.
# The plate was then washed thrice. […] Termination of reaction: The reaction was terminated by quickly adding the stop solution at 100 μL/well. Plate reading: The reading at wavelength 450 nm was detected by an M2e instrument within 10 min after the termination.
# Compound activity data analysis: The OD450 values were converted to TNF-α and IFN-α contents by GraphPad Prism software analysis and fitted to give dose-response curves of the compounds. The EC50 values for the compounds were calculated, where the Emax values are the maximal values for TNF-α and IFN-α.
row,SMILES,EC50
1,CCCN(OCc1ccc(N)cc1)C(=O)C1=Cc2ccc(C(=O)Nc3ccc4cn[nH]c4c3)cc2N=C(N)C1 [Compound 89],10 to 50 nM
2,CCCN(OCc1ccc(N)cc1)C(=O)C1=Cc2ccc(-c3cncc(S(=O)(=O)N4CCNCC4)c3)cc2N=C(N)C1 [Compound 69],≤ 10 nM
3,CCCN(OCc1ccc(N)cc1)C(=O)C1=Cc2ccc(C(=O)N[C@H]3C[C@@H]3c3ccccc3)cc2N=C(N)C1 [Compound 78],≤ 10 nM
4,CCCN(OCc1ccc(N)cc1)C(=O)C1=Cc2ccc(C(=O)NCCO)cc2N=C(N)C1 [Compound 48],10 to 50 nM
5,CCCN(OCc1ccc(N)cc1)C(=O)C1=Cc2ccc(C(=O)N3CC(CO)C3)cc2N=C(N)C1 [Compound 37],10 to 50 nM
6,CCCN(OCc1ccc(N)cc1)C(=O)C1=Cc2ccc(C(=O)NC3CCOCC3)cc2N=C(N)C1 [Compound 84],≤ 10 nM
7,CCCN(OCc1ccc(N)cc1)C(=O)C1=Cc2ncc(-c3cncc(CO)c3)cc2N=C(N)C1 [Compound 61],≤ 10 nM
8,CCCN(OCc1ccc(N)cc1)C(=O)C1=Cc2ccc(-c3cccc(S(=O)(=O)NCCO)c3)cc2N=C(N)C1 [Compound 64],≤ 10 nM
9,CCCN(OCc1ccc(N)cc1OC)C(=O)C1=Cc2ncc(-c3cncc(CO)c3)cc2N=C(N)C1 [Compound 60],≤ 10 nM
10,CCCN(OCc1ccc(N)cc1)C(=O)C1=Cc2ccc(C(=O)N[C@@H](C)c3ccccc3)cc2N=C(N)C1 [Compound 77],≤ 10 nM
11,CCCN(OCc1ccc(N)cc1)C(=O)C1=Cc2ccc(-c3cncc(S(=O)(=O)N4CC[C@H](O)C4)c3)cc2N=C(N)C1 [Compound 72],≤ 10 nM
12,CCCN(OCc1ccc(N)cc1)C(=O)C1=Cc2ccc(-c3cncc([S+](C)[O-])c3)cc2N=C(N)C1 (stereo not drawn) [Compound 73],≤ 10 nM
13,CCCN(OCc1ccc(N)cc1)C(=O)C1=Cc2ccc(-c3cncc(S(=O)(=O)NCCO)c3)cc2N=C(N)C1 [Compound 70],≤ 10 nM
14,CCCN(OCc1ccc(N)cc1)C(=O)C1=Cc2ccc(C(=O)N3CCN(c4ccccc4)CC3)cc2N=C(N)C1 [Compound 97],≤ 10 nM
15,CCCN(OCc1ccc(N)cc1)C(=O)C1=Cc2ccc(-c3cncc(S(=O)(=O)N4CCC(O)CC4)c3)cc2N=C(N)C1 [Compound 71],≤ 10 nM
